Laboratory results as given in patent publication US12251387B2, “Substituted quinoxalines and benzo[c][1,2,5]oxadiazoles as DNA-PK inhibitors” (Vertex Pharmaceuticals Incorporated, priority 2013, dated 2025).
pKi: −log10 of the molar value.

Each molecule was assayed against DNA-PK (Homo sapiens, UniProt P78527) (assay: DNA-PK Inhibition Assay (standard radiometric kinase assay, 33P-ATP, peptide substrate)). Details: not given.
Assay type: biochemical
Procedure: Compounds were screened for their ability to inhibit DNA-PK kinase using a standard radiometric assay. Briefly, in this kinase assay the transfer of the terminal ^33P-phosphate in ^33P-ATP to a peptide substrate is interrogated. The assay was carried out in 384-well plates to a final volume of 50 μL per well containing approximately 6 nM DNA-PK, 50 mM HEPES (pH 7.5), 10 mM MgCl2, 25 mM NaCl, 0.01% BSA, 1 mM DTT, 10 μg/mL sheared double-stranded DNA (obtained from Sigma), 0.8 mg/mL DNA-PK peptide (Glu-Pro-Pro-Leu-Ser-Gln-Glu-Ala-Phe-Ala-Asp-Leu-Trp-Lys-Lys-Lys, obtained from American Peptide), and 100 μM ATP. Accordingly, compounds of the invention were dissolved in DMSO to make 10 mM initial stock solutions. Serial dilutions in DMSO were then made to obtain the final solutions for the assay. A 0.75 μL aliquot of DMSO or inhibitor in DMSO was added to each well, followed by the addition of ATP substrate solution containing ^33P-ATP (obtained from Perkin Elmer). The reaction was started by the addition of DNA-PK, peptide and ds-DNA. After 45 min, the reaction was quenched with 25 μL of 5% phosphoric acid. The reaction mixture was transferred to MultiScreen HTS 384-well PH plates (obtained from Millipore), allowed to bind for one hour, and washed three times with 1% phosphoric acid. Following the addition of 50 μL of Ultima Gold™ high efficiency scintillant (obtained from Perkin Elmer), the samples were counted in a Packard TopCount NXT Microplate Scintillation and Luminescence Counter (Packard BioScience). The Ki values were calculated using Microsoft Excel Solver macros to fit the data to the kinetic model for competitive tight-binding inhibition.

SMILES | pKi
ClCCN1CCC(c2cnc(N[C@H]3CC[C@@H](Oc4cc(N5CCOCC5)cc5nccnc45)CC3)nc2)CC1 [Compound 522] | > 7.00

Same assay, conditions: radiometric assay, approximately 6 nM DNA-PK, 100 μM ATP, 45 min; fit to competitive tight-binding inhibition; read-out: Ki for the inhibition of DNA-PK

SMILES | pKi
c1cn2ccnc2c(N[C@H]2CC[C@@H](Oc3cc(N4CCOCC4)cc4nccnc34)CC2)n1 [Compound 372] | > 7.00
Cc1cc(N[C@H]2CC[C@@H](Oc3cc(N4CCOCC4)cc4nccnc34)CC2)nn1C [Compound 326] | > 7.00
CN(C)c1ccc(N[C@H]2CC[C@@H](Oc3cc(N4CCOCC4)cc4nccnc34)CC2)nn1 [Compound 598] | > 7.00
c1cc2c(c(N[C@H]3CC[C@@H](Oc4cc(N5CCOCC5)cc5nccnc45)CC3)n1)CCN2 [Compound 371] | > 7.00
N#Cc1cncnc1N[C@H]1CC[C@@H](Oc2cc(N3CCOCC3)cc3nccnc23)CC1 [Compound 422] | > 7.00
CNc1ncc(OC)c(N[C@H]2CC[C@@H](Oc3cc(N4CCOCC4)cc4nccnc34)CC2)n1 [Compound 387] | > 7.00
Fc1c(N[C@H]2CC[C@@H](Oc3cc(N4CCOCC4)cc4nccnc34)CC2)ncnc1C1CC1 [Compound 456] | > 7.00
Cc1ncc(F)c(N[C@H]2CC[C@@H](Oc3cc(N4CCOCC4)cc4nccnc34)CC2)n1 [Compound 494] | > 7.00
c1cnc2c(O[C@H]3CC[C@@H](Nc4cc5[nH]ccc5cn4)CC3)cc(N3CCOCC3)cc2n1 [Compound 540] | > 7.00
Cc1cc(N[C@H]2CC[C@@H](Oc3cc(N4CCOCC4)cc4nccnc34)CC2)n[nH]1 [Compound 637] | > 7.00
COc1nc(N[C@H]2CC[C@@H](Oc3cc(N4CCOCC4)cc4nccnc34)CC2)c2cc[nH]c2n1 [Compound 383] | > 7.00
Clc1nccc(N[C@H]2CC[C@@H](Oc3cc(N4CCOCC4)cc4nccnc34)CC2)n1 [Compound 533] | > 7.00
Oc1nc(N[C@H]2CC[C@@H](Oc3cc(N4CCOCC4)cc4nccnc34)CC2)nc(C2CC2)n1 [Compound 600] | > 7.00
Cc1nc(N[C@H]2CC[C@@H](Oc3cc(N4CCOCC4)cc4nccnc34)CC2)cc(C2CC2)n1 [Compound 636] | > 7.00
c1cc(N[C@H]2CC[C@@H](Oc3cc(N4CCOCC4)cc4nccnc34)CC2)nc(N2CCOCC2)n1 [Compound 534] | > 7.00
COc1cc(N[C@H]2CC[C@@H](Oc3cc(N4CCOCC4)cc4nccnc34)CC2)nc(N(C)C)n1 [Compound 553] | > 7.00
Cn1ccc(N[C@H]2CC[C@@H](Oc3cc(N4CCOCC4)cc4nccnc34)CC2)n1 [Compound 649] | > 7.00
Cc1ncc(N[C@H]2CC[C@@H](Oc3cc(N4CCOCC4)cc4nccnc34)CC2)c(C)n1 [Compound 449] | > 7.00
Cc1cn(C)c(N[C@H]2CC[C@@H](Oc3cc(N4CCOCC4)cc4nccnc34)CC2)n1 [Compound 646] | > 7.00
CNc1nc(N[C@H]2CC[C@@H](Oc3cc(N4CCOCC4)cc4nccnc34)CC2)cc(=O)[nH]1 [Compound 400] | > 7.00
Cc1cnc(N[C@H]2CC[C@@H](Oc3cc(N4CCOCC4)cc4nccnc34)CC2)nc1C [Compound 467] | > 7.00
Clc1cc(N[C@H]2CC[C@@H](Oc3cc(N4CCOCC4)cc4nccnc34)CC2)nc(C2CC2)n1 [Compound 605] | > 7.00
Clc1nc(N[C@H]2CC[C@@H](Oc3cc(N4CCOCC4)cc4nccnc34)CC2)c2[nH]ccc2n1 [Compound 513] | > 7.00
OC(c1ccc(N[C@H]2CC[C@@H](Oc3cc(N4CCOCC4)cc4nccnc34)CC2)nc1)C(F)(F)F (some centres unmarked) [Compound 630] | > 7.00
Cc1cc(N[C@H]2CC[C@@H](Oc3cc(N4CCOCC4)cc4nccnc34)CC2)cc(C)n1 [Compound 286] | > 7.00
c1cc(N[C@H]2CC[C@@H](Oc3cc(N4CCOCC4)cc4nccnc34)CC2)n2ncnc2c1 [Compound 581] | > 7.00

SMILES | pKi
Cc1nccc(N[C@H]2CC[C@@H](Oc3cc(N4CCO[C@H](C)C4)cc4nccnc34)CC2)n1 [Compound 290] | > 7.00
COCCOc1cc(N[C@H]2CC[C@@H](Oc3cc(N4CCOCC4)cc4nccnc34)CC2)ncn1 [Compound 539] | > 7.00
N#CCCN1CCC(c2cnc(N[C@H]3CC[C@@H](Oc4cc(N5CCOCC5)cc5nccnc45)CC3)nc2)CC1 [Compound 519] | > 7.00
OCc1cnc2cc(N3CCOCC3)cc(O[C@H]3CC[C@@H](Nc4ncccn4)CC3)c2n1 [Compound 617] | > 7.00
c1cnc2c(O[C@H]3CC[C@@H](Nc4ncc(CCN5CCCC5)cn4)CC3)cc(N3CCOCC3)cc2n1 [Compound 432] | > 7.00
CN(C)C(=O)N[C@H]1CC[C@@H](Oc2cc(N3CCOCC3)cc3nccnc23)CC1 [Compound 411] | > 7.00
Clc1cncnc1N[C@H]1CC[C@@H](Oc2cc(N3CCOCC3)cc3nccnc23)CC1 [Compound 409] | > 7.00
Oc1ncc(F)c(N[C@H]2CC[C@@H](Oc3cc(N4CCOCC4)cc4nccnc34)CC2)n1 [Compound 395] | > 7.00
c1cc(-c2cnc(N[C@H]3CC[C@@H](Oc4cc(N5CCOCC5)cc5nccnc45)CC3)nc2)[nH]n1 [Compound 462] | > 7.00
CN(C)C(=O)c1ccnc(N[C@H]2CC[C@@H](Oc3cc(N4CCOCC4)cc4nccnc34)CC2)n1 [Compound 351] | > 7.00
Cc1cncnc1N[C@H]1CC[C@@H](Oc2cc(N3CCOCC3)cc3nccnc23)CC1 [Compound 471] | > 7.00
Cc1cccc(N[C@H]2CC[C@@H](Oc3cc(N4CCOCC4)cc4nccnc34)CC2)n1 [Compound 623] | > 7.00
CN1CCN(C(=O)c2cnc(N[C@H]3CC[C@@H](Oc4cc(N5CCOCC5)cc5nccnc45)CC3)nc2)CC1 [Compound 337] | > 7.00
Cc1cncc(N[C@H]2CC[C@@H](Oc3cc(N4CCOCC4)cc4nccnc34)CC2)n1 [Compound 373] | > 7.00
FC(F)(F)c1ccnc(N[C@H]2CC[C@@H](Oc3cc(N4CCOCC4)cc4nccnc34)CC2)c1 [Compound 589] | > 7.00
Cn1nnc(-c2cnc(N[C@H]3CC[C@@H](Oc4cc(N5CCOCC5)cc5nccnc45)CC3)nc2)n1 [Compound 458] | > 7.00
c1cc(N[C@H]2CC[C@@H](Oc3cc(N4CCOCC4)cc4nccnc34)CC2)nc(CN2CCCCC2)n1 [Compound 496] | > 7.00
O=C(O)c1ccc(N[C@H]2CC[C@@H](Oc3cc(N4CCOCC4)cc4nccnc34)CC2)cn1 [Compound 393] | > 7.00
Cn1nc(N[C@H]2CC[C@@H](Oc3cc(N4CCOCC4)cc4nccnc34)CC2)ccc1=O [Compound 578] | > 7.00
FC(F)Oc1ccc(N[C@H]2CC[C@@H](Oc3cc(N4CCOCC4)cc4nccnc34)CC2)nc1 [Compound 572] | > 7.00
CCOc1cc(N[C@H]2CC[C@@H](Oc3cc(N4CCOCC4)cc4nccnc34)CC2)ccn1 [Compound 324] | > 7.00
c1nc(N[C@H]2CC[C@@H](Oc3cc(N4CCOCC4)cc4nccnc34)CC2)cc(OC2CNC2)n1 [Compound 480] | > 7.00
Cc1nccc(N[C@H]2CC[C@@H](Oc3cc(N4CCOCC4)cc4nonc34)CC2)n1 [Compound 316] | > 7.00
c1cc(N[C@H]2CC[C@@H](Oc3cc(N4CCOCC4)cc4nccnc34)CC2)ncn1 [Compound 486] | > 7.00
Fc1c(N[C@H]2CC[C@@H](Oc3cc(N4CCOCC4)cc4nccnc34)CC2)ncnc1N1CCOCC1 [Compound 511] | > 7.00
OCc1cnc(N[C@H]2CC[C@@H](Oc3cc(N4CCOCC4)cc4nccnc34)CC2)cn1 [Compound 577] | > 7.00
